Data reported in patent US20070219243A1, “Method for improving the pharmacokinetics of HIV integrase inhibitors” (priority 2005, published 2007).
“Also recorded” adds a separate entry of the source.

Tests used:
[1] = Example 1: pharmacokinetics of Compound 1 alone and with RTV in healthy subjects; format: in vivo, human; conditions: for Ctau / Cmax / half-life / AUC: Compound 1 in plasma; for AUC: N = 12, read-out: AUC (AUCtau)
Source text: The study was an open-label, fixed-sequence, crossover, pharmacokinetic study with 12 subjects. The subjects were healthy males and non-pregnant, nonlactating females between 18 and 45 years of age, inclusive. The duration of the study was 20 days, with Period 1 of Days 1 to 10 and Period 2 of days 11 to 20. Follow-up contact was on day 27.

[2] = Example 1: multiple-dose safety of Compound 1 alone and with RTV; format: in vivo, human
Description: The single-dose and multiple-dose pharmacokinetics of Compound 1 were also determined. The multiple-dose safety of Compound 1 administered alone and with RTV was also determined. Safety: Safety was evaluated by assessment of clinical laboratory tests at baseline and at various time points during the study; periodic physical examinations, including vital signs; and documentation of adverse events throughout the study. Safety: No statistical inference was performed for safety data in this pharmacokinetic study.

[3] = human, in vivo
Description: Safety, tolerability, pharmacokinetics, and efficacy were monitored through Day 21 after dosing. The active treatments in the 5 cohorts were as follows: […] The duration of the study was 21 days, with 10 days of treatment and 11 days of follow-up. […] Matching placebo was administered orally under fed conditions. For Cohort 5 only, 100 mg RTV capsules were coadministered orally under fed conditions. […] Pharmacokinetics: The pharmacokinetic parameters of Compound 1 in plasma and peripheral blood mononuclear cells were summarized using descriptive statistics.

[4] = in vivo
Description: Pharmacokinetic (PK) blood draws were performed on days 7, 17, and 27.

[5] = Example 5: drug-drug interaction of zidovudine and Compound 1/r; conditions: human, in vivo
Source text: Zidovudine is a NRTI used in HIV patients.
PK parameters were estimated using WinNonlin™ 5.0.1 (Pharsight Corporation, Mountain View, Calif., USA).

[6] = Example 7: food effect on pharmacokinetics of Compound 1 in healthy Japanese males; format: in vivo; conditions: male, human, plasma, po, 400 mg, single oral dose 400 mg, Mean ± SD (n = 6); for half-life: read-out: t1/2 λz (converted)
Description: Subjects in the 400 mg fasted cohort received an additional 400 mg dose with breakfast after a washout period (generally a minimum of ten days after the initial administration). The interval of ten days between the two doses was considered appropriate for eliminating any within-subject carryover effects. […] Doses were administered at similar times for each subject in each treatment period. […] Plasma samples were isolated from healthy subjects administered with Compound 1. The plasma samples were extracted by solid phase extraction using Empore™ Disk Plate (C8SD), and then measured by high-performance liquid chromatography/tandem mass spectrometry (LC/MS/MS) (HPLC model 2795 separations module from Waters; mass spectrometer model AP14000 from MDS SCIEX). Ionization and detection were performed with electrospray ionization and positive ion detection with multiple reaction monitoring, respectively. […] To 50 μL of plasma samples spiked with […] each of 90% acetonitrile and 20 mmol/L ammonium formate-formic acid buffer (pH 3.0)/acetonitrile (10:90, v/v), 10 μL each of internal standard solution was added. To these samples, 200 μL of 0.1% formic acid in 10% acetonitrile was added. These solutions were then mixed for 10 seconds and centrifuged at 10,000 rpm for 5 minutes at 4° C. A 250 μL aliquot of the supernatant was added to a Empore™ Disk Plate (C8SD) (conditioned with 150 μL of acetonitrile and 200 μL of 0.1% formic acid in this order). The plate was washed twice with 200 μL of 0.1% formic acid in 20% acetonitrile and eluted twice with 100 μL of 0.1% formic acid in 80% acetonitrile (200 μL in total). To the eluates, 200 μL of 0.1% formic acid was added and mixed. Then, 10 μL of each solution was injected into the LC/MS/MS system and analyzed.

[7] = Example 7: safety of single 400 mg dose; format: in vivo, human; conditions: single oral 400 mg dose, fasted and fed, healthy Japanese males
Description: The subjects were admitted to the medical institution in the afternoon on the day before administration (“Day-1”). […] The subjects were discharged the day after administration (“Day 2”). Thus, the subjects were hospitalized for a total of three days. Follow up assessment for safety was performed 6 to 8 days after administration (“Days 7 to 9”).

HIV-1 integrase = HIV-1 integrase (Human immunodeficiency virus type 1 group M subtype B, UniProt P04585); conditions: after 10 days of monotherapy; through Day 21
[8] = Example 3: pharmacokinetics of Compound 1 and RTV at a range of RTV doses; conditions: for Ctau / AUC / Cmax / half-life: Compound 1 in plasma, mean (CV %); for IQ: based on protein binding-adjusted IC50 in PBMCs; for AUC / Cmax / half-life: both, human, plasma, oral; for AUC: AUCtau
[9] = both sexes, human, plasma, oral, 100 mg, Day 10, Compound 1 100 mg twice daily alone, mean (% CV)
[10] = both sexes, human, plasma, oral, Day 11, Compound 1 100 mg twice daily + single dose RTV 100 mg, mean
[11] = both sexes, human, plasma, oral, Day 20, Compound 1 100 mg + RTV 100 mg twice daily, mean
[12] = healthy subjects, Compound 1 100 mg twice daily alone, or with RTV 100 mg twice daily
[13] = Compound 1 125 mg + 20 mg RTV QD
[14] = Compound 1 125 mg + 50 mg RTV QD
[15] = Compound 1 125 mg + 100 mg RTV QD
[16] = Compound 1 125 mg + 200 mg RTV QD

**Q.** With COc1cc2c(cc1Cc1cccc(Cl)c1F)c(=O)c(C(=O)O)cn2[C@H](CO)C(C)C [Compound 1, 6-(3-chloro-2-fluorobenzyl)-1-[(2S)-1-hydroxy-3-methylbutan-2-yl]-7-methoxy-4-oxo-1,4-dihydroquinoline-3-carboxylic acid] as the compound, how does the “mean steady-state exposure (AUCtau, Day 10) lower compared with mean exposure (AUCinf) after a single dose (Day 1)” value ([1]; Compound 1 100 mg alone, indicating autoinduction of metabolism) read?
**A.** Its value is “approximately 20%”.

**Q.** And the Ctau ([1]; end of dosing interval, Day 1, Compound 1 100 mg alone, mean (% CV))?
**A.** Its Ctau is 19.2 (52.5) ng/mL.

**Q.** What about the Ctau ([1]; Day 10, Compound 1 100 mg twice daily alone, mean (% CV)) of the same compound?
**A.** Its Ctau is 12.4 (63.7) ng/mL.

**Q.** What about the Ctau ([1]; Day 11, Compound 1 100 mg twice daily + single dose RTV 100 mg, mean) of the same compound?
**A.** Its Ctau is 543.3 ng/mL.

**Q.** And the Ctau ([1]; Day 20, Compound 1 100 mg + RTV 100 mg twice daily, mean)?
**A.** The Ctau was 1035.6 ng/mL.

**Q.** What about the Cmax ([1]; both sexes, human, plasma, oral, 100 mg, Day 1, single dose Compound 1 100 mg alone, mean (% CV)) of the same compound?
**A.** The Cmax was 200 ng/mL.

**Q.** And the half-life ([1]; both sexes, human, plasma, oral, 100 mg, Day 1, single dose Compound 1 100 mg alone, median (min, max))?
**A.** The half-life was 186 min.

**Q.** And the half-life ([1]; both sexes, human, plasma, oral, 100 mg, Day 10, Compound 1 100 mg twice daily alone, steady state, median (min, max))?
**A.** The half-life was 210 min.

**Q.** What about the Cmax [1, 9] of the same compound?
**A.** Its Cmax is 164 ng/mL.

**Q.** What about the AUC [1, 9] of the same compound?
**A.** Its AUC is 719 ng·h/mL.

**Q.** What about the AUC(0-inf) ([1]; both sexes, human, plasma, oral, 100 mg, read-out: AUC (AUCinf)) of the same compound?
**A.** Its AUC(0-inf) is 908 ng·h/mL.

**Q.** What about the Cmax [1, 10] of the same compound?
**A.** The Cmax was 795 ng/mL.

**Q.** And the AUC [1, 10]?
**A.** The AUC was 6170 ng·h/mL.

**Q.** What about the half-life ([1]; both sexes, human, plasma, oral, Day 11, Compound 1 100 mg twice daily + single dose RTV 100 mg, median) of the same compound?
**A.** Its half-life is 1090 min.

**Q.** And the half-life ([1]; both sexes, human, plasma, oral, Day 20, Compound 1 100 mg + RTV 100 mg twice daily, steady state, median)?
**A.** Its half-life is 570 min.

**Q.** And the Cmax [1, 11]?
**A.** The Cmax was 1830 ng/mL.

**Q.** What about the AUC [1, 11] of the same compound?
**A.** Its AUC is 14300 ng·h/mL.

**Q.** And the “Subjects with treatment-emergent AEs considered related to study drugs” value [2, 12]?
**A.** Its value is 2 of 12.

**Q.** What about the “Subjects with treatment-emergent adverse events” value [2, 12] of the same compound?
**A.** Its value is 4 of 12.

**Q.** What about the Tolerability ([2]; oral, 100 mg twice daily, Compound 1 up to 20 days, with RTV 100 mg twice daily up to 10 days) of the same compound?
**A.** Its Tolerability is “well tolerated”.

**Q.** What about the “Dose proportionality of pharmacokinetics” value [3] of the same compound?
**A.** Its value is “did not exhibit dose-proportional increases”.

**Q.** And the “PK (Cmax, AUCtau, Ctau) during co-administration vs alone” value [4]?
**A.** Its value is “unaffected”.

**Q.** And the “Half-life (48 hour PK profile)” value [5]?
**A.** Its value is “supporting once daily dosing”.

**Q.** And the AUC(0-inf) ([6]; Fasted)?
**A.** Its AUC(0-inf) is 1450 ± 308 ng·h/mL.

**Q.** What about the Cmax ([6]; Fasted) of the same compound?
**A.** Its Cmax is 264 ± 78 ng/mL.

**Q.** And the Tmax ([6]; Fasted)?
**A.** Its Tmax is 2.5 ± 1.2 h.

**Q.** What about the half-life ([6]; Fasted) of the same compound?
**A.** Its half-life is 324 ± 60 min.

**Q.** What about the AUC(0-inf) ([6]; Fed) of the same compound?
**A.** Its AUC(0-inf) is 3940 ± 1070 ng·h/mL.

**Q.** What about the Cmax ([6]; Fed) of the same compound?
**A.** Its Cmax is 903 ± 391 ng/mL.

**Q.** What about the Tmax ([6]; Fed) of the same compound?
**A.** Its Tmax is 2.3 ± 1 h.

**Q.** And the half-life ([6]; Fed)?
**A.** The half-life was 192 ± 18 min.

**Q.** What about the Safety and tolerability [7] of the same compound?
**A.** Its Safety and tolerability is “safe and well tolerated”.

**Q.** And the “HIV-1 integrase mutations corresponding to Compound 1 resistance” value (HIV-1 integrase)?
**A.** Its value is “no subject developed HIV-1 integrase mutations; also recorded: No Compound 1 resistance mutations were detected”.

**Q.** What about the Ctau [8, 13] of the same compound?
**A.** The Ctau was 73.8 (60.2) ng/ml.

**Q.** What about the Ctau [8, 14] of the same compound?
**A.** Its Ctau is 251 (27.7) ng/ml.

**Q.** What about the Ctau [8, 15] of the same compound?
**A.** The Ctau was 380 (39.9) ng/ml.

**Q.** And the Ctau [8, 16]?
**A.** Its Ctau is 410 (26.0) ng/ml.

**Q.** What about the IQ [8, 13] of the same compound?
**A.** The IQ was 10.3.

**Q.** And the IQ [8, 14]?
**A.** Its IQ is 35.0.

**Q.** What about the IQ [8, 15] of the same compound?
**A.** Its IQ is 53.0.

**Q.** What about the IQ [8, 16] of the same compound?
**A.** Its IQ is 57.2.

**Q.** And the AUC ([8]; Compound 1 125 mg + 20 mg RTV QD, after a meal)?
**A.** Its AUC is 10200 ng·h/mL.

**Q.** What about the AUC [8, 14] of the same compound?
**A.** Its AUC is 15800 ng·h/mL.

**Q.** And the AUC [8, 15]?
**A.** Its AUC is 20300 ng·h/mL.

**Q.** What about the AUC [8, 16] of the same compound?
**A.** The AUC was 20600 ng·h/mL.

**Q.** And the Cmax [8, 13]?
**A.** The Cmax was 1370 ng/mL.

**Q.** What about the Cmax [8, 14] of the same compound?
**A.** The Cmax was 1560 ng/mL.

**Q.** And the Cmax [8, 15]?
**A.** The Cmax was 1830 ng/mL.

**Q.** And the Cmax [8, 16]?
**A.** The Cmax was 2030 ng/mL.

**Q.** And the half-life [8, 13]?
**A.** Its half-life is 260 min.

**Q.** What about the half-life [8, 14] of the same compound?
**A.** Its half-life is 571 min.

**Q.** What about the half-life [8, 15] of the same compound?
**A.** Its half-life is 690 min.

**Q.** And the half-life [8, 16]?
**A.** The half-life was 858 min.
